Columns and labels:
Wnt pathway = Wnt pathway modulation to promote bone growth (FIG. 1); settings: doses of 2.5 ng (low), 60 ng (medium), 125 ng (high) and 1250 ng (very high)
Method: (§1) For example, the mouse test animal is treated with a predetermined dose of a SOST antagonist candidate for a complete dosing schedule. A control mouse is treated with a control solution, preferably a non-irritating buffer solution or other carrier. Once the dosing schedule has been completed, both test and control animals are examined with sacrifice using micro-CT to determine the quantity of bone formation present.

C57BL/6 mice = assay: Bone growth with indoprofen: pQCT analysis on the femur after 30 days of daily treatment; format: in vivo, mouse; settings: four month old male C57BL/6 mice, 2 mg/kg i.p. daily for 30 days, FIG. 2
Method: Four month old male C57BL/6 mice were treated daily with saline vehicle or the sclerostin inhibitor of indoprofen at 2 mg/kg (via i.p) for 30 days. Study endpoints included measurement of trabecular bone mineral content and bone mineral density by pQCT analysis on the femur.

mouse = assay: Mouse bone formation assay, micro-CT examination of test vs control animals; format: in vivo; settings: predetermined dose for a complete dosing schedule, vs control solution
Text: Compounds useful in the methods of the present invention can be identified via a variety of methods known to one of skill in the art. Several exemplary methods for identifying such antagonists are described herein, including cell-based and in vitro techniques (Journal of Bone and Mineral Research 2006, 21(11), 1738-1749). A general method of identifying SOST antagonists involves evaluating the effects of antagonist candidates on bone formation under controlled conditions. Preferably bone formation is determined using micro-CT techniques on live animals. Preferred animals include rodents, more preferred are primates. Femur, tibia and vertebrae bones are particularly useful subjects for such study.
Briefly, the test animal is treated with a predetermined dose of a SOST antagonist candidate. […]
Once the dosing schedule has been completed, both test and control animals are examined to determine the quantity of bone formation present. […] Where necessary, levels of bone formation can be calculated by determining the volume of bone formation present in each animal. […]
as §1, with “A control mouse is treated with a control solution, preferably a non-irritating buffer solution or other carrier.” left out

`CC(C(=O)O)c1ccc(N2Cc3ccccc3C2=O)cc1` (stereo not shown) [indoprofen] was tested. Which “modulation of the Wnt pathway to promote bone growth” value (Wnt pathway) did it give?
The value was “modulating the Wnt pathway to promote bone growth”.

And the “increase for trabecular bone mineral density (BMD)” value (C57BL/6 mice; pQCT on femur)?
Its value is “greater than 2%”.

What about the “increase in bone mineral content (BMC) for the femur over baseline controls” value (C57BL/6 mice; pQCT) of the same compound?
Its value is “greater than 6%”.

What about the “promotion of bone growth (quantity of bone formation by micro-CT)” value (mouse) of the same compound?
The value was “promoting bone growth”.

Reference: patent US20100040628A1 (OsteoGeneX, Inc, priority 2008, published 2010)
